Measurements: ChEMBL document CHEMBL5143699, “Identification of novel indole derivatives as highly potent AMPK activators with anti-diabetic profiles” (Bioorg Med Chem Lett, 2022)
Each block holds one compound with its values, some of them ahead of it. Calls of active or inactive are those of the source. The calls are words filed in the database; no cut-off is given here.

Experiments:
[1] = molecular target: AMPK alpha2/beta2/gamma1 (Homo sapiens) (UniProt P54646+O43741+P54619); test: Activation of human recombinant AMPK A2/B2/G1 assessed as increase in AMPK phosphorylation using FL-peptide as substrate incubated for 120 mins by EZ reader method; assay type: protein-complex assay
[2] = Protein binding in serum (unknown origin) assessed as unbound fraction by equilibrium dialysis assay; assay type: ADME, cell-free
Cytochrome P450 2C19 = Cytochrome P450 2C19 (Homo sapiens, UniProt P33261); test: Inhibition of CYP2C19 in human liver microsomes using mephenytoin as substrate; assay type: ADME, Microsome
Cytochrome P450 1A2 = molecular target: T1, Cytochrome P450 1A2 (Homo sapiens, UniProt P05177); test: Inhibition of CYP1A2 in human liver microsomes using 7-ethoxyresorufin as substrate; assay type: ADME, Microsome
T1 sequence (P05177 whole entry): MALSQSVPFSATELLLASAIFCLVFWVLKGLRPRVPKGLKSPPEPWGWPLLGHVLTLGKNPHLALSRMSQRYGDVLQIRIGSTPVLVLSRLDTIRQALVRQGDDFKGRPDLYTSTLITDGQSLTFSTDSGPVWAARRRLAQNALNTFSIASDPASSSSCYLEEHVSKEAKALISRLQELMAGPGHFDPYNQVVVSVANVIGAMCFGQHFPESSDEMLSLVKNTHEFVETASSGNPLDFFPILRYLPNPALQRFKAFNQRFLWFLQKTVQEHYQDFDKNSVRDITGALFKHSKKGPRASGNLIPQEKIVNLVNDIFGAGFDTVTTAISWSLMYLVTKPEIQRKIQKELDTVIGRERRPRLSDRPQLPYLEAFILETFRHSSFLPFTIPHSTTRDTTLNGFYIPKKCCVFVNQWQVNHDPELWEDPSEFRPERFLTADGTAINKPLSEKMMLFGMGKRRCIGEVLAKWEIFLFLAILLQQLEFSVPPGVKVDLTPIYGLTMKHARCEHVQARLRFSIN

Cytochrome P450 2C9 = Cytochrome P450 2C9 (Homo sapiens, UniProt P11712); test: Inhibition of CYP2C9 in human liver microsomes using tolbutamide as substrate; assay type: ADME, Microsome
Cytochrome P450 2D6 = Cytochrome P450 2D6 (Homo sapiens, UniProt P10635); test: Inhibition of CYP2D6 in human liver microsomes using dextromethorphan as substrate; assay type: ADME, Microsome
Cytochrome P450 3A4 = Cytochrome P450 3A4 (Homo sapiens, UniProt P08684); test: Inhibition of CYP3A4 in human liver microsomes using terfenedine as substrate; assay type: ADME, Microsome
[3] = Metabolic stability in human liver microsomes assessed as compound remaining measured after 30 mins; assay type: ADME, Microsome; settings: read-out: Stability
[4] = Metabolic stability in rat liver microsomes assessed as compound remaining measured after 30 mins; assay type: ADME, Microsome; settings: read-out: Stability
[5] = AUC in rat at 1 mg/kg, po; assay type: ADME, organism-based; parameters: dose 1 mg/kg, route po; settings: in vivo
[6] = Cmax in rat at 1 mg/kg, po or 0.5 mg/kg, iv; assay type: ADME, organism-based; parameters: dose 1 mg/kg, route po; settings: in vivo
[7] = […] of the compound in rat liver at 1 mg/kg, po or 0.5 mg/kg, iv; assay type: ADME, organism-based
[8] = […] of the compound in rat muscle at 1 mg/kg, po or 0.5 mg/kg, iv; assay type: ADME, organism-based
[9] = molecular target: T2, 5'-AMP-activated protein kinase subunit beta-2 (Homo sapiens, UniProt O43741); test: Activation of recombinant AMPK-beta2 (unknown origin) assessed as increase in AMPK phosphorylation by DELFIA fluorescence assay
T2 sequence (O43741 whole entry): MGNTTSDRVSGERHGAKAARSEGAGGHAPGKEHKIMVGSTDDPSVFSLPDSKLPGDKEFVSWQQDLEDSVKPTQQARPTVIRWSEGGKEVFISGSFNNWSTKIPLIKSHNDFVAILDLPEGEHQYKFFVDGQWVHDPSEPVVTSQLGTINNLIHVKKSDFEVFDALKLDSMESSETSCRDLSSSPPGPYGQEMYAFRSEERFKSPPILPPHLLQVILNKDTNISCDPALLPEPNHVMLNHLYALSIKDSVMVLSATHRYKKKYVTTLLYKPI

[10] = molecular target: T3, 5'-AMP-activated protein kinase subunit beta-1 (Rattus norvegicus, UniProt P80386); test: Activation of rat liver AMPK-beta1 using SAMS peptide as substrate incubated for 10 mins by microplate reader assay; assay type: tissue-based
T3 sequence (P80386 whole entry): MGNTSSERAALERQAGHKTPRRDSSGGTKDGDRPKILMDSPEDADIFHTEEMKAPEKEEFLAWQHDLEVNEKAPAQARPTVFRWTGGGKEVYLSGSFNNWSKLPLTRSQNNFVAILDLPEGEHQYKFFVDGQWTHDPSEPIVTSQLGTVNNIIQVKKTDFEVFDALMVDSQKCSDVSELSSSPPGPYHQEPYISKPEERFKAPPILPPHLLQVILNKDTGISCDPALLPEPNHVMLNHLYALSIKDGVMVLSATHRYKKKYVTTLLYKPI

[11] = molecular target: T4, 5'-AMP-activated protein kinase (Mus musculus) (UniProt Q5EG47+Q8BRK8+Q6PAM0+O54950+Q91WG5+Q9R078+Q8BGM7); test: In vivo activation of AMPK in mouse skeletal muscle assessed as increase in ACC phosphorylation level at 0.08 to 6.75 mg/kg,po by ELISA; assay type: functional, organism-based; settings: Skeletal muscle tissue, dose 0.08-6.75 mg/kg, DDE = dose-dependent effect
[12] = molecular target: T4, 5'-AMP-activated protein kinase (Mus musculus); test: In vivo activation of AMPK in mouse liver assessed as increase in AMPKalpha phosphorylation level at 0.08 to 6.75 mg/kg,po by western blot method; assay type: functional, organism-based; settings: dose 0.08-6.75 mg/kg, DDE = dose-dependent effect
Mus musculus [13] = test: Antidiabetic activity against po dosed type 2 diabetic KKAy mouse model assessed as acute glucose lowering effect measured for 1 to 6 hrs; assay type: functional, organism-based; settings: time 1-6 hrs, DDE = dose-dependent effect
Mus musculus [14] = test: Antidiabetic activity against type 2 diabetic KKAy mouse model assessed as increase in Akt phosphorylation in skeletal muscle at 1.5 to 6 mg/kg,po bid measured on 25 to 26 days after insulin injection by ELISA; assay type: functional, organism-based; settings: dose 1.5-6 mg/kg, time 25-26 day
Mus musculus [15] = test: Antidiabetic activity against type 2 diabetic KKAy mouse model assessed as decrease in lipid accumulation in liver at 1.5 to 6 mg/kg,po bid measured on 25 to 26 days after insulin injection; assay type: functional, organism-based; settings: dose 1.5-6 mg/kg, time 25-26 day
Mus musculus [16] = test: Antidiabetic activity against type 2 diabetic KKAy mouse model assessed as decrease in plasma glucose level administrated orally bid measured after 21 days of administration by automatic analyzer; assay type: functional, organism-based; settings: route po, time 21.0 day, DDE = dose-dependent effect
Mus musculus [17] = test: Antidiabetic activity against type 2 diabetic KKAy mouse model assessed as decrease in HbA1c level administrated orally bid measured after 21 days of administration by automatic analyzer; assay type: functional, organism-based; settings: route po, time 21.0 day, DDE = dose-dependent effect

Sequence of AMPK alpha2/beta2/gamma1 (Homo sapiens) (P54619 whole entry, looked up, one chain of several): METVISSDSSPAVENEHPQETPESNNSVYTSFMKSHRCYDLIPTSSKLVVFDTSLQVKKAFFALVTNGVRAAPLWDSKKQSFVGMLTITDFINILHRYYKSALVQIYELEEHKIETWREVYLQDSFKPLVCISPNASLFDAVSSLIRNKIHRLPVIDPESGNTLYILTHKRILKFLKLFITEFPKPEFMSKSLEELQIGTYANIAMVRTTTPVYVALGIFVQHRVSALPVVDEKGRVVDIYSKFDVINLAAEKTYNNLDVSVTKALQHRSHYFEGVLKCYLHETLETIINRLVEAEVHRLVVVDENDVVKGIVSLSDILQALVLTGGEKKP
Sequence of AMPK alpha2/beta2/gamma1 (Homo sapiens) (P54646 whole entry, looked up, one chain of several): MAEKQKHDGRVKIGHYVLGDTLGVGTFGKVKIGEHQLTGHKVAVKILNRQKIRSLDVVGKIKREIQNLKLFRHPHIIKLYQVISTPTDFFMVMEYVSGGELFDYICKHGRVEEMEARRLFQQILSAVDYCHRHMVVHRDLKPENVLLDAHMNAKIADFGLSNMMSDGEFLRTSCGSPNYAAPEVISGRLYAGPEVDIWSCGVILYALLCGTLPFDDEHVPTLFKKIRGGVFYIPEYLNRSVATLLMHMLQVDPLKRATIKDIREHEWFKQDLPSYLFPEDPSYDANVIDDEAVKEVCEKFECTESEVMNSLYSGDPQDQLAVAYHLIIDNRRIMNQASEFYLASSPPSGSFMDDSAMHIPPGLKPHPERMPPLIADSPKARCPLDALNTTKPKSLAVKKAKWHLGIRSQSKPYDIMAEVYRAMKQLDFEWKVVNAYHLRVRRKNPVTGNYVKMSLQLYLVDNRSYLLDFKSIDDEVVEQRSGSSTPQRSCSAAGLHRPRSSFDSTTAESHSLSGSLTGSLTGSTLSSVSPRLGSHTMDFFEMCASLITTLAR
Sequence of Cytochrome P450 2C19 (P33261 whole entry): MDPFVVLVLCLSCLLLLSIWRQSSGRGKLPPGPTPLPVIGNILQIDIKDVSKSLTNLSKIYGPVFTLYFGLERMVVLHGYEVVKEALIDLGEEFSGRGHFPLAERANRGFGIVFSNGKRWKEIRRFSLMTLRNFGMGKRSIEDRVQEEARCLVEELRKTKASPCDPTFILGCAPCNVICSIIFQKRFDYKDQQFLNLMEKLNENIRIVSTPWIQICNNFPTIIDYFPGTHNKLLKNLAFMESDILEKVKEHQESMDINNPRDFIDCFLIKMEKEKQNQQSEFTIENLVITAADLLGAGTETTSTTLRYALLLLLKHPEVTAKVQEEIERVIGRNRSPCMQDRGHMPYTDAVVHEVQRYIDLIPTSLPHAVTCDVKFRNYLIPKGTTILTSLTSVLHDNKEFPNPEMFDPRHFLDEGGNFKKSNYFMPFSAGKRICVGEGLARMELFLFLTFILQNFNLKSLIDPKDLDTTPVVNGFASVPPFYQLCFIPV
Sequence of Cytochrome P450 2D6 (P10635 whole entry): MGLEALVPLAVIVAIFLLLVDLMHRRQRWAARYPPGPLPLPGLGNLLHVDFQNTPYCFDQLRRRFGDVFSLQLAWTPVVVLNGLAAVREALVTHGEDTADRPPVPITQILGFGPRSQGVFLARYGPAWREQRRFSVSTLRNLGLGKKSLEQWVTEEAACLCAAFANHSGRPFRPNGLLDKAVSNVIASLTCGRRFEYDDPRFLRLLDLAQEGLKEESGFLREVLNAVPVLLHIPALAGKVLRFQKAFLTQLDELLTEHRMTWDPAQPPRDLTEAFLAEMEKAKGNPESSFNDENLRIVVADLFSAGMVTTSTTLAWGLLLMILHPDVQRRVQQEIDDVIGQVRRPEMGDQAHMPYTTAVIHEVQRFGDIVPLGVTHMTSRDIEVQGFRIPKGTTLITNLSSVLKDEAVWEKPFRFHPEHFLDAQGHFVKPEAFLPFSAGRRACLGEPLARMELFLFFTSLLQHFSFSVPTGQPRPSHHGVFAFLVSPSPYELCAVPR
Sequence of Cytochrome P450 3A4 (P08684 whole entry): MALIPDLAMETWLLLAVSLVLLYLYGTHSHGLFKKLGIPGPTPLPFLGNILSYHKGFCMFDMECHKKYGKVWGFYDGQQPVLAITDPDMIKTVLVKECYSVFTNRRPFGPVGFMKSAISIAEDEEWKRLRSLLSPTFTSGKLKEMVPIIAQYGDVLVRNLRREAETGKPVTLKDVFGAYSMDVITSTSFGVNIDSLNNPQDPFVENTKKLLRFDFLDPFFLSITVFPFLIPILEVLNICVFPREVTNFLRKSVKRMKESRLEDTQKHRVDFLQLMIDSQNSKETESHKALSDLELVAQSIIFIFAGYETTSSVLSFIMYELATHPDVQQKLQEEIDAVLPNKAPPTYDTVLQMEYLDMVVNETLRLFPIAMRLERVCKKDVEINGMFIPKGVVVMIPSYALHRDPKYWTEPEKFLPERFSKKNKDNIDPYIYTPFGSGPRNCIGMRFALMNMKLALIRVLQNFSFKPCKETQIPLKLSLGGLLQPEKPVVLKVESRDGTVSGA
Sequence of Cytochrome P450 2C9 (P11712 whole entry): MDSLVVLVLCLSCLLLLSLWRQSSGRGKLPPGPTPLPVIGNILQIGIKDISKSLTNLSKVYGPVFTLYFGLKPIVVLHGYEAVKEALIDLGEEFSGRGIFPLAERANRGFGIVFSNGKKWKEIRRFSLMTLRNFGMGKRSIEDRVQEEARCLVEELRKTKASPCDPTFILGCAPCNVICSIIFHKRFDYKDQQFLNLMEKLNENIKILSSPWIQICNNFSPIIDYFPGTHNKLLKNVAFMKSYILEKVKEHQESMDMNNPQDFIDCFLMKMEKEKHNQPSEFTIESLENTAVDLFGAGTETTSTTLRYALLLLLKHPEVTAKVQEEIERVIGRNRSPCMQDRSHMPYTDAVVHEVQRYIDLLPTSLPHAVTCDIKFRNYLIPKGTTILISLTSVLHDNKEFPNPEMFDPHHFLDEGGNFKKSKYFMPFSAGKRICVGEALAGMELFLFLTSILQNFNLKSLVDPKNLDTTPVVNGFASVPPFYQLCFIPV

Compound: Cn1c(O[C@@H]2CO[C@H]3[C@@H]2OC[C@H]3O)c(C#N)c2cc(-c3ccc(N4CCOCC4)cc3)c(Cl)cc21
EC150 [1]: > 100 µM

Compound: O=S1(=Nc2ccc(-c3ccc(-c4nc5cc(O[C@@H]6CO[C@H]7[C@@H]6OC[C@H]7O)[nH]c5cc4F)cc3)cc2)CCCC1
EC150 ([1]; filed as activator): 0.002 µM
fraction unbound [2]: 0.01
IC50 (Cytochrome P450 2C19): 3.7 µM
remaining at 0.5 h [3]: 98%
remaining at 0.5 h [4]: 86%
AUC [5]: 251 ng·h/mL
Cmax [6]: 43 ng/mL
Kp [7]: 3.34
Kp [8]: 0.67

Compound: N#Cc1c(O[C@@H]2CO[C@H]3[C@@H]2OC[C@H]3O)[nH]c2cc(Cl)c(-c3ccc(N4CCOCC4)cc3)nc12
EC150 ([1]; filed as activator): 0.087 µM

Compound: CS(C)(=O)=Nc1ccc(-c2ccc(-c3nc4cc(O[C@@H]5CO[C@H]6[C@@H]5OC[C@H]6O)[nH]c4cc3F)cc2)nc1
EC150 ([1]; filed as activator): 0.0034 µM
fraction unbound [2]: 0.072
IC50 (Cytochrome P450 2C19): > 10 µM
IC50 (Cytochrome P450 1A2): > 10 µM
IC50 (Cytochrome P450 2C9): > 10 µM
IC50 (Cytochrome P450 2D6): > 10 µM
IC50 (Cytochrome P450 3A4): > 10 µM
remaining at 0.5 h [3]: > 99%
remaining at 0.5 h [4]: 83%
AUC [5]: 111 ng·h/mL
Cmax [6]: 44.8 ng/mL
Kp [7]: 2.19
Kp [8]: 0.98

Compound: O[C@@H]1CO[C@H]2[C@@H]1OC[C@H]2Oc1cc2nc(-c3ccc(N4CCOCC4)cc3)c(Cl)cc2[nH]1
EC150 ([1]; filed as activator): 0.0019 µM

Compound: N#Cc1c(O[C@@H]2CO[C@H]3[C@@H]2OC[C@H]3O)[nH]c2cc(Cl)c(-c3ccc(N4CCOCC4)cc3)cc12
EC150 ([1]; filed as activator): 0.039 µM

Compound: O=C1NC2SC(Cl)=C(c3ccc4c(c3O)CCCC4)C2C(O)=C1c1ccccc1 (stereo unspecified)
EC50 [9]: 1.3 µM

Compound: N#Cc1c(O[C@@H]2CO[C@H]3[C@@H]2OC[C@H]3O)[nH]c2ccc(-c3ccc(N4CCOCC4)cc3)cc12
EC150 ([1]; filed as activator): 0.38 µM

Compound: O[C@@H]1CO[C@H]2[C@@H]1OC[C@H]2Oc1cc2nc(-c3ccc(N4CCOCC4)cc3)c(F)cc2[nH]1
EC150 ([1]; filed as activator): 0.0053 µM

Compound: N#CC1=C(O)C2C(c3ccc(-c4ccccc4O)cc3)=CSC2NC1=O (stereo unspecified)
EC50 [10]: 0.8 µM

Compound: CS(C)(=O)=Nc1ccc(-c2ccc(-c3nc4cc(O[C@@H]5CO[C@H](CO)C5)[nH]c4cc3F)cc2)cc1
EC150 ([1]; filed as activator): 0.001 µM
fraction unbound [2]: 0.011
remaining at 0.5 h [3]: 94%
remaining at 0.5 h [4]: 90%
AUC [5]: 810 ng·h/mL
Cmax [6]: 130 ng/mL
Kp [7]: 7.14
Kp [8]: 0.63
Activity [11]: Dde
Activity [12]: Dde
Activity (Mus musculus [13]): Dde
Activity (Mus musculus [14]): Active
Activity (Mus musculus [15]): Active
Activity (Mus musculus [16]): Dde
Activity (Mus musculus [17]): Dde

The next lines start with the values.

EC150 ([1]; filed as activator): 0.0073 µM
fraction unbound [2]: 0.002
Compound: COCCOc1ccc(-c2ccc(-c3nc4cc(O[C@@H]5CO[C@H]6[C@@H]5OC[C@H]6O)[nH]c4cc3F)cc2)cc1

EC150 ([1]; filed as activator): 0.001 µM
fraction unbound [2]: 0.016
IC50 (Cytochrome P450 2C19): > 10 µM
IC50 (Cytochrome P450 1A2): > 10 µM
IC50 (Cytochrome P450 2C9): > 10 µM
IC50 (Cytochrome P450 2D6): > 10 µM
IC50 (Cytochrome P450 3A4): > 10 µM
remaining at 0.5 h [3]: > 99%
remaining at 0.5 h [4]: 91%
AUC [5]: 288 ng·h/mL
Cmax [6]: 68.7 ng/mL
Kp [7]: 2.4
Kp [8]: 0.61
Compound: CS(C)(=O)=Nc1ccc(-c2ccc(-c3nc4cc(O[C@@H]5CO[C@H]6[C@@H]5OC[C@H]6O)[nH]c4cc3F)cc2)cc1

EC150 ([1]; filed as activator): 0.017 µM
Compound: O[C@@H]1CO[C@H]2[C@@H]1OC[C@H]2Oc1cc2nc(-c3ccc(-c4ccccc4)cc3)c(F)cc2[nH]1

EC150 ([1]; filed as activator): 0.011 µM
Compound: COc1ccc(-c2ccc(-c3nc4cc(O[C@@H]5CO[C@H]6[C@@H]5OC[C@H]6O)[nH]c4cc3F)cc2)cc1

EC150 ([1]; filed as activator): 0.0018 µM
fraction unbound [2]: 0.01
IC50 (Cytochrome P450 2C19): 7.4 µM
Compound: O=C(c1ccc(-c2ccc(-c3nc4cc(O[C@@H]5CO[C@H]6[C@@H]5OC[C@H]6O)[nH]c4cc3F)cc2)cc1)N1CCCC1

EC150 ([1]; filed as activator): 0.016 µM
Compound: COCCOc1ccc(-c2ccc(-c3nc4cc(O[C@@H]5CO[C@H]6[C@@H]5OC[C@H]6O)[nH]c4cc3F)cc2)cn1
